The values that follow come from US20200345633A1, “Pharmaceutical Compositions for Controlling and/or Reducing the Progression of Myopia” (Brien Holden Vision Institute Limited, priority 2017, published 2020).

In series [1] the test system is myopia. Conditions: cited from earlier work.
In a further series the test system is primate eyes. Kind of series: Choroidal thickness via Ocular Coherence Tomography (OCT) after eye drops in primate eyes. Particulars: atropine at 0.1 wt. % concentration; data not shown.
A further series relates to accommodation. Particulars: systemic intake; cited from earlier work.
The test system of a further series is human eye. Conditions: concentration of 1 wt. %; cited from earlier work.
Series [2] deals with myopia. Particulars: oral administration, young myopic children, one year; cited from earlier work.

The structures appear in SMILES notation. Like-named read-outs stand apart in the source and are kept apart here.

Method for primate eyes: As outlined in FIG. 1, in this experiment, the baseline choroidal thickness of primate 656 was measured via Ocular Coherence Tomography (OCT) in both eyes at baseline 1 (B1) and was repeated 2 weeks later (B2). Beginning on Day 1 (five days after the second baseline measurement), a single drop of 0.1 wt. % atropine monotherapy was instilled in the right eye only once per day for 2 days. On Day 3, a choroidal thickness measurement via OCT was then conducted for both eyes and another drop of 0.1 wt. % atropine monotherapy was instilled in the right eye only and the choroidal thickness measured again in both eyes. […] On Day 20, the choroidal thickness of both eyes was measured using OCT, another drop of 1.4 wt. % caffeine monotherapy was instilled in the left eye only, and the choroidal thickness was then measured again in both eyes 20 minutes later. […] On Day 37, the choroidal thickness of both eyes was measured via OCT, another drop of the 0.1 wt. % atropine/1.4 wt. % caffeine combination therapy was instilled in the right eye only, and the choroidal thickness was then measured again in both eyes 20 minutes later. Following the final measurement on Day 37, no drops were instilled for over 2 weeks for a Recovery Period, after which the choroidal thickness of both eyes was again measured on Day 57. […]

For the compound `CN1[C@@H]2CC[C@H]1C[C@@H](OC(=O)C(CO)c1ccccc1)C2` (stereo partly drawn) [atropine], the “effect on accommodative amplitude” value in the series with myopia [1] (0.01 wt. %) is listed as “not significant”. Besides, the pupil size increase entry with myopia [1] (0.01 wt. %) is recorded as “minimal”. The adverse effects entry in the series with myopia [1] (concentrations of 1% and 0.5%) was “significant short term adverse effects”; in the series on primate eyes, “adverse effects result”. Moreover, the progression of myopia entry with myopia [1] (initially used in concentrations of approximately 1%) is reported as “slow the progression of myopia”. Moreover, the axial length elongation entry with myopia [1] (low dose, 0.01 wt %) was “not effective in reducing axial length elongation”. Moreover, the side effects result in the series on myopia [1] (low-concentration topical, 0.01 wt. %) is on record as “not induce side effects”.

Turning to `Cn1c(=O)c2c(ncn2C)n(C)c1=O` [caffeine], the accommodation entry in the series on accommodation is recorded as “enhances accommodation”. In the series on human eye, the “safety of topical use” value is “safely been used topically”.

For the compound `Cn1cnc2[nH]c(=O)[nH]c(=O)c21` [7-methylxanthine], in the series with myopia [2], the axial eye growth result is on record as “retards axial eye growth”, the progression of myopia entry is given as “slowing of the progression of myopia” and the side effects result is “without significant side effects”.
